Patent publication US11076595B2, “1-(n,n-disubstituted carbamoyl) 4-(substituted sulfonyl)triazolin-5-one derivative, 4-(n,n-disubstituted carbamoyl) 1-(substituted sulfonyl)triazolin-5-one derivative, and herbicide containing said derivative as active ingredient” (HOKKO CHEMICAL INDUSTRY CO., LTD., priority 2017, dated 2021)

Experiments:
Type in all cases: in vivo
[1] = system: Lindernia pyxidaria; experiment: Test Example 12: herbicidal effect test by treatment during growing period in paddy field; conditions: 120 g/10a; treatment seven days after sowing in flooded paddy pot; assessed 14 days after treatment
Outline: (§1)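 Water-diluted emulsifiable concentrate added dropwise to flooded pots (~3 cm water) 7 d after sowing; rate 120 g active ingredient per 10 are. Weeds grown from 30 seeds each in puddled paddy soil under greenhouse conditions. Dry-weight suppression rate relative to untreated plots determined 14 d after treatment, duplicates.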

[2] = system: Monochoria vaginalis; experiment: as above; conditions: 120 g/10a; treatment seven days after sowing in flooded paddy pot; assessed 14 days after treatment
Outline: as §1

[3] = system: Echinochloa crus-galli; experiment: as above; conditions: 120 g/10a; treatment seven days after sowing in flooded paddy pot; assessed 14 days after treatment
Outline: as §1

[4] = system: Scirpus juncoides; experiment: as above; conditions: 120 g/10a; treatment seven days after sowing in flooded paddy pot; assessed 14 days after treatment
Outline: as §1

[5] = system: crabgrass; experiment: Test Example 13: herbicidal effect test by soil treatment in upland field; conditions: 120 g/10a, 14 days after treatment
Experimental: (§2) A pot having a size of 36 cm^2 was filled with field soil (alluvial soil) and after mixing the soil of the surface layer of 1 cm with 20 grains of each weed seed of crabgrass, Echinochloa crus-galli, Chenopodium album and Amaranthus viridis, the surface layer was pressed lightly. One day after the sowing, an emulsifiable concentrate prepared according to Formulation Example 15 by using the compound shown in Table 11 below was diluted with water, and the water-diluted formulation was sprayed on the soil surface at a ratio of 100 liter per 10 are. The application rate of the active ingredient, by conversion, corresponded to 120 g per 10 are. Fourteen Days after the formulation treatment, the herbicidal effect was evaluated by the same criteria as in Test Example 11.

[6] = system: Amaranthus viridis; experiment: as above; conditions: 120 g/10a, 14 days after treatment
Experimental: as §2

[7] = system: Echinochloa crus-galli; experiment: as above; conditions: 120 g/10a, 14 days after treatment
Experimental: as §2

[8] = system: Chenopodium album; experiment: as above; conditions: 120 g/10a, 14 days after treatment
Experimental: as §2

[9] = system: Lindernia pyxidaria; experiment: Test Example 11: herbicidal effect test by soil treatment in paddy field; conditions: 120 g/10a active ingredient, 14 days after treatment
Outline: (§3)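 Pre-emergence paddy test, 120 g a.i./10 are, emulsifiable concentrate diluted in water and added dropwise to ~3 cm flood water right after sowing (30 seeds/species, 0–1 cm depth, fertilized puddled soil). Greenhouse; 2 replicates; dry-weight suppression (%) vs untreated, day 14.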

[10] = system: Monochoria vaginalis; experiment: as above; conditions: 120 g/10a active ingredient, 14 days after treatment
Outline: as §3

[11] = system: Echinochloa crus-galli; experiment: as above; conditions: 120 g/10a active ingredient, 14 days after treatment
Outline: as §3

[12] = system: Scirpus juncoides; experiment: as above; conditions: 120 g/10a active ingredient, 14 days after treatment
Outline: as §3

SMILES | Weed suppression rate (%) Lindemia pyxidaria [1] | Weed suppression rate (%) Monochoria vaginalis [2] | Weed suppression rate (%) Echinochloa crus-galli [3] | Weed suppression rate (%) Scirpus juncoides [4] | herbicidal effect, Crabgrass [5] | herbicidal effect, Amaranthus viridis [6] | herbicidal effect, Echinochloa crus-galli [7] | herbicidal effect, Chenopodium album [8] | Weed suppression rate (%) Lindemia pyxidaria [9] | Weed suppression rate (%) Monochoria vaginalis [10] | Weed suppression rate (%) Echinochloa crus-galli [11] | Weed suppression rate (%) Scirpus juncoides [12]
CC(C)N(C(=O)n1cnn(S(=O)(=O)c2c(F)c(F)c(F)c(F)c2F)c1=O)c1ccc(F)cc1Cl [Compound 11-818] | 80% | 100% | 100% | 100% | 100% | 60% | 100% | 60% | 100% | 100% | 100% | 100%
Cc1ccc(N(C(=O)n2cnn(S(=O)(=O)C3CCCCC3)c2=O)C(C)C)c(F)c1 [Compound 11-308] | 80% | 80% | 90% | 90% | 90% | 90% | 80% | 80% | 90% | 90% | 90% | 90%
CC(C)N(C(=O)n1cnn(S(=O)(=O)C2CCCCC2)c1=O)c1ccccc1F [Compound 11-284] | 100% | 100% | 100% | 90% | 90% | 90% | 80% | 80% | 100% | 100% | 100% | 100%
Cc1cc(Cl)ccc1N(C(=O)n1cnn(S(=O)(=O)C2CCCCC2)c1=O)C(C)C [Compound 11-309] | 80% | 80% | 90% | 90% | 90% | 90% | 80% | 80% | 80% | 80% | 90% | 90%
CC(C)N(C(=O)n1cnn(S(=O)(=O)c2cccs2)c1=O)c1cccc(F)c1F [Compound 11-1021] | 80% | 90% | 100% | 100% | 100% | 70% | 90% | 70% | 100% | 100% | 100% | 100%
CC(C)N(C(=O)n1cnn(S(=O)(=O)c2ccc(Br)cc2)c1=O)c1ccc(F)cc1F [Compound 11-616] | 80% | 80% | 50% | 60% | 40% | 80% | 80% | 80% | 90% | 90% | 90% | 90%
Cc1cc(F)ccc1N(C(=O)n1cnn(S(=O)(=O)C2CC2)c1=O)C(C)C [Compound 11-211] | 80% | 80% | 100% | 100% | 100% | 70% | 100% | 70% | 100% | 80% | 100% | 90%
CCN(CC)C(=O)n1cnn(S(=O)(=O)c2cccc(Cl)c2)c1=O [Compound 11-538] | 70% | 70% | 70% | 70% | 60% | 40% | 80% | 40% | 40% | 40% | 50% | 40%
CCc1ccc(S(=O)(=O)n2ncn(C(=O)N(CC)CC)c2=O)cc1 [Compound 11-665] | 60% | 60% | 90% | 60% | 80% | 0% | 80% | 0% | 40% | 40% | 80% | 40%
